Results published in patent publication US20130337461A1, “METHOD FOR DIAGNOSIS, MONITORING THE EFFICACY OF A THERAPY AND FOR DEVELOPMENT OF TREATMENT FOR MULTIPLE SCLEROSIS” (priority 2010, published 2013).

Assays:
M03-13 cells [1] = experiment: Differentiation of M03-13 cells with low doses of hydrogen peroxide: differentiation markers; assay type: cell-based, human
M03-13 cells [2] = experiment: Differentiation of M03-13 cells with PMA: expression or localization of differentiation markers
[3] = 100 nM PMA 30 min, cells pre-incubated 16 h in 0.2% FBS, Western blotting, vs not differentiated
[4] = 100 nM PMA 24 h, absence of serum, Western blotting
[5] = 200 μM H2O2 for 4 days in complete medium, Western blotting

## CC(=O)N[C@@H](CS)C(=O)O [NAC, N-Acetyl-Cysteine]
M03-13 cells [1]; 200 μM H2O2 in presence of NAC 10 mM or AEBSF 40 μM, Western blotting
  reversal of hydrogen peroxide effects on α-SMA, P-CREB levels: reverted hydrogen peroxide effects

## CCCCCCCCCCCCCC(=O)O[C@@H]1[C@@H](C)[C@@]2(O)[C@@H](C=C(CO)C[C@]3(O)C(=O)C(C)=C[C@@H]23)[C@@H]2C(C)(C)[C@]12OC(C)=O [PMA, 12-O-Tetradecanoylphorbol-13-acetate]
M03-13 cells [2]; [3]
  P-CREB levels: significantly increases
  P-ERK1/2 levels: significantly increases
M03-13 cells [2]; [4]
  Olig-2 levels: increased
  P-CREB levels: increased
  P-ERK1/2 levels: increased
  α-SMA levels: decrease
M03-13 cells [2]; 100 nM PMA 24 h, medium without serum, confocal microscopy
  translocation of olig-2 from nucleus to cytosol: a cytoplasmic staining of the cells became evident
M03-13 cells [2]; 100 nM PMA serum-free medium, 1 and 4 days, confocal microscopy, vs not differentiated cells
  α-SMA signal: decreased
M03-13 cells [2]; 100 nM PMA serum-free medium, 1 day and 4 days, confocal microscopy, vs not differentiated cells
  Olig-2 fluorescent signal: progressively increased
M03-13 cells [2]; 100 nM PMA serum-free medium, 1 day or 4 days, confocal microscopy, vs not differentiated cells
  MBP signal: increased
M03-13 cells [2]; 100 nM PMA, absence of serum, 4 days, Western blotting
  mAchR M1 level: increased
M03-13 cells [2]; 100 nM PMA, absence of serum, 4 days, cell fractionation and Western blotting
  cytosolic MBP levels: decreases
M03-13 cells [2]; 100 nM PMA, medium without serum, 24 h and 4 days, flow cytometric analysis
  MBP protein levels: time-dependent increase

## hydrogen peroxide [H2O2]
M03-13 cells [1]; 200 μM H2O2 4d, flow cytometric analysis
  total MBP protein levels: increases
M03-13 cells [1]; 200 μM H2O2, 30 min and 24 h, confocal microscopy
  translocation of olig-2 from nucleus to cytosol: a cytoplasmic staining of the cells became evident already after 30 min
M03-13 cells [1]; 200 μM H2O2 complete medium, 1 and 4 days, confocal microscopy, vs not differentiated cells
  α-SMA signal: decreased
M03-13 cells [1]; 200 μM H2O2 complete medium, 1 day and 4 days, confocal microscopy, vs not differentiated cells
  Olig-2 fluorescent signal: progressively increased
M03-13 cells [1]; [5]
  P-CREB levels: induces
  P-ERK1/2 levels: not affected
  α-SMA levels: decreases
M03-13 cells [1]; 200 μM hydrogen peroxide 4 days, complete medium, cell fractionation and Western blotting
  cytosolic MBP levels: decreases
M03-13 cells [1]; low doses of hydrogen peroxide, overall conclusion
  differentiation of oligodendrocyte precursors to differentiated cells: induces the differentiation
